Experimental data taken from US9073895B2 (Boehringer Ingelheim International GmbH, priority 2010, dated 2015).
pIC50: −log10 of the molar value.

Key:
[1] = tested on: apoE/LDL-R double knockout mice; conditions: oral dosing, high-fat diet from 2 months of age to 6 months; cited from earlier work
ApoExCD4dnT RII mice = conditions: infusion, treated for four weeks; cited from earlier work
[2] = tested on: biomarkers for myocardial infarction risk; conditions: clinical trial; cited from earlier work
human glomerulonephritis = conditions: clinical trial; cited from earlier work
[3] = tested on: synthesis of LTB4 in human whole blood; experiment: Human whole blood LTB4 production inhibition assay; format: cell-based; conditions: heparinized human whole blood, calcimycin 20 μM, plasma LTB4; read-out: HuWB IC50
In short: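 LTB4 in plasma was quantified by HTRF immunoassay. Before that, compound-treated heparinized whole blood (15 min, 37 °C) received 20 μM final calcimycin for a further 30 min at 37 °C, followed by centrifugation at 1500×g.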

[4] = molecular target: T1, recombinant human FLAP protein (Homo sapiens, UniProt P20292); experiment: FLAP binding assay (SPA, displacement of [125I]L-691,831); conditions: membranes of sf9 cells expressing human FLAP, [125I]L-691,831 probe; read-out: hFLAP binding IC50
T1 construct: made in house; host or cells: Sf9 insect cells (membrane fraction, 100,000 x g pellet)
T1 sequence (P20292 1-161): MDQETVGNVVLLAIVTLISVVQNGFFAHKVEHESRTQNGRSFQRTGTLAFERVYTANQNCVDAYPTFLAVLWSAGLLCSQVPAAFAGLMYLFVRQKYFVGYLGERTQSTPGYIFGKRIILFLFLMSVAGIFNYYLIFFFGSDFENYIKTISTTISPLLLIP
In short: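 Membranes from sf9 cells expressing human FLAP (5 μg/well) were bound to WGA SPA beads (200 μg/well). Nonspecific binding was defined with 10 μM unlabelled L-691,831.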

Row | Compound | pIC50 [3] | pIC50 [4] | further results
1 | CC(C)c1ccc2c(c1)c(SC(C)(C)C)c(CC(C)(C)C(=O)O)n2Cc1ccc(Cl)cc1 [MK-886] |  |  | decrease in plaque coverage in the aorta [1]: 56%; decrease in plaque coverage in the aortic root [1]: 43%; decrease in plaque area in the aortic root (ApoExCD4dnT RII mice): ~40%
2 | O=C(O)[C@@H](c1ccc(OCc2ccc3ccccc3n2)cc1)C1CCCC1 [DG-031] |  |  | effect on biomarkers for myocardial infarction risk [2]: dose-dependent suppression of several biomarkers
3 | CC(C)(C)Sc1c(CC(C)(C)C(=O)O)n(Cc2ccc(Cl)cc2)c2ccc(OCc3ccc4ccccc4n3)cc12 [MK-591] |  |  | effect on proteinuria (human glomerulonephritis): reduce proteinuria
4 | CC(C)C(C)(C(=O)Nc1cccnc1)c1ccc(-c2cnc3[nH]ccc3c2)cc1 (centres unmarked) [Example 180, 2,3-dimethyl-N-(pyridin-3-yl)-2-[4-(1H-pyrrolo[2,3-b]pyridin-5-yl)phenyl]butanamide] | 6.40 | 8.20 | 
5 | Nc1ncc(-c2ccc(C3(C(=O)Nc4cnccn4)CCC3)cc2)cn1 [Example 214, 1-[4-(2-aminopyrimidin-5-yl)phenyl]-N-(pyrazin-2-yl)cyclobutanecarboxamide] | 5.97 | 7.62 | 
6 | Nc1ncc(-c2ccc(C3(C(=O)Nc4nc5ccccc5s4)CCOCC3)cc2)cn1 [Example 55, 4-[4-(2-aminopyrimidin-5-yl)phenyl]-N-(1,3-benzothiazol-2-yl)tetrahydro-2H-pyran-4-carboxamide] | < 5.52 | 7.54 | 
7 | Nc1ncc(-c2ccc(C3(C(=O)Nc4cccc(Oc5ccccc5)c4)CCOCC3)cc2)cn1 [Example 22, 4-[4-(2-aminopyrimidin-5-yl)phenyl]-N-(3-phenoxyphenyl)tetrahydro-2H-pyran-4-carboxamide] | < 5.52 | 7.22 | 
8 | Nc1ncc(-c2ccc(C3(C(=O)Nc4ccc(-c5ncn[nH]5)cn4)CCC3)cc2)cn1 [Example 102, 1-[4-(2-aminopyrimidin-5-yl)phenyl]-N-[5-(1H-1,2,4-triazol-5-yl)pyridin-2-yl]cyclobutanecarboxamide] | 6.48 | 8.69 | 
9 | CS(=O)(=O)c1ccc(NC(=O)C2(c3ccc(-c4cnc(N)nc4)cc3)CCC2)cn1 [Example 89, 1-[4-(2-aminopyrimidin-5-yl)phenyl]-N-[6-(methylsulfonyl)pyridin-3-yl]cyclobutanecarboxamide] | 6.69 | 8.09 | 
10 | COc1cncc(-c2ccc(C(C)(C(=O)Nc3cccc(-c4csc(C)n4)c3)C(C)C)cc2)c1 (centres unmarked) [Example 113, 2-[4-(5-methoxypyridin-3-yl)phenyl]-2,3-dimethyl-N-[3-(2-methyl-1,3-thiazol-4-yl)phenyl]butanamide] | 4.98 | 6.41 | 
11 | CC(C)(C)c1noc(NC(=O)C2(c3ccc(-c4cnc(N)nc4)cc3)CCCCC2)n1 [Example 126, 1-[4-(2-aminopyrimidin-5-yl)phenyl]-N-(3-tert-butyl-1,2,4-oxadiazol-5-yl)cyclohexanecarboxamide] | 4.92 | 6.74 | 
12 | Nc1ncc(-c2ccc(C3(C(=O)Nc4ccc(N5CCOCC5)cc4)CCOCC3)cc2)cn1 [Example 147, 4-[4-(2-aminopyrimidin-5-yl)phenyl]-N-[4-(mopholin-4-yl)phenyl]tetrahydro-2H-pyran-4-carboxamide] | 5.54 | 6.31 | 
13 | COc1cncc(-c2ccc(NC(=O)C3(c4ccc(-c5cnc6c(c5)CCN6)cc4)CCOCC3)nc2)c1 [Example 175, 4-[4-(2,3-dihydro-1H-pyrolo[2,3-b]pyridin-5-yl)phenyl]-N-(5'-methoy-3,3'-bipyridin-6-yl)tetrahydro-2H-pyran-4-carboxamide] | 5.89 | 7.66 | 
14 | Nc1ncc(-c2ccc(C3(C(=O)Nc4ccncc4)CCOCC3)cc2)cn1 [Example 155, 4-[4-(2-aminopyrimidin-5-yl)phenyl]-N-(pyridin-4-yl)tetrahydro-2H-pyran-4-carboxamide] | 6.07 | 6.87 | 
15 | Cc1nccn1-c1ccc(NC(=O)C2(c3ccc(-c4cnc(N)nc4)cc3)CCC2)cc1 [Example 229, 1-[4-(2-aminopyrimidin-5-yl)phenyl]-N-[4-(2-methyl-1H-imidazol-1-yl)phenyl]cyclobutanecarboxamide] | 6.82 | 8.18 | 
16 | N#Cc1cc(NC(=O)C2(c3ccc(-c4cnc(N)nc4)cc3)CCC2)ccn1 [Example 236, 1-[4-(2-aminopyrimidin-5-yl)phenyl]-N-(2-cyanopyridin-4-yl)cyclobutanecarboxamide] | 6.54 | 8.46 | 
17 | COc1ccc(-c2ccc(NC(=O)C3(c4ccc(-c5cnc(N)nc5)cc4)CCOCC3)nc2)cn1 [Example 134, 4-[4-(2-aminopyrimidin-5-yl)phenyl]-N-(6'-methoxy-3,3'-bipyridin-6-yl)tetrahydro-2H-pyran-4-carboxamide] | 6.19 | 7.76 | 
18 | CC(C)C(C)(C(=O)Nc1ccncc1)c1ccc(-c2ccc(N(C)C)nc2)cc1 (centres unmarked) [Example 227, 2-{4-[6-(dimethylamino)pyridin-3-yl]phenyl}-2,3-dimethyl-N-(pyridin-4-yl)butanamide] | < 5.52 | 7.39 | 
19 | Cn1ccc(NC(=O)C2(c3ccc(-c4cnc(N)nc4)cc3)CCC2)cc1=O [Example 216, 1-[4-(2-aminopyrimidin-5-yl)phenyl]-N-(1-methyl-2-oxo-1,2-dihydropyridin-4-yl)cyclobutanecarboxamide] | 5.52 | 7.04 | 
20 | Nc1ncc(-c2ccc(C3(C(=O)Nc4cccnc4)CCC3)cc2)cn1 [Example 183, 1-[4-(2-aminopyrimidin-5-yl)phenyl]-N-(pyridin-3-yl)cyclobutanecarboxamide] | 6.32 | 7.29 | 
21 | Nc1ncc(-c2ccc(C3(C(=O)Nc4nc(-c5ccccc5)cs4)CCOCC3)cc2)cn1 [Example 20, 4-[4-(2-aminopyrimidin-5-yl)phenyl]-N-(4-phenyl-1,3-thiazol-2-yl)tetrahydro-2H-pyran-4-carboxamide] | 5.87 | 7.80 | 
22 | Cc1noc(-c2ccc(NC(=O)C3(c4ccc(-c5cnc(N)nc5)cc4)CCOCC3)nc2)n1 [Example 178, 4-[4-(2-aminopyrimidin-5-yl)phenyl]-N-[5-(3-methyl-1,2,4-oxadiazol-5-yl)pyridin-2-yl]tetrahydro-2H-pyran-4-carboxamide] | 6.25 | 7.45 | 
23 | CCOC(=O)c1sc2ccc(NC(=O)C3(c4ccc(-c5cnc(N)nc5)cc4)CCOCC3)cc2c1C [Example 43, ethyl 5-[({4-[4-(2-aminopyrimidin-5-yl)phenyl]tetrahydro-2H-pyran-4-yl}carbonyl)amino]-3-methyl-1-benzothiophene-2-carboxylate] | < 5.52 | 7.91 | 
24 | COc1cncc(-c2ccc(NC(=O)C3(c4ccc(-c5cnc(N)nc5)cc4)CCOCC3)nc2)c1 [Example 135, 4-[4-(2-aminopyrimidin-5-yl)phenyl]-N-(5'-methoxy-3,3'-bipyridin-6-yl)tetrahydro-2H-pyran-4-carboxamide] | 6.13 | 7.95 | 
25 | CC(C)(C)OC(=O)N1CCc2cc(NC(=O)C3(c4ccc(-c5cnc(N)nc5)cc4)CCOCC3)ccc2C1 [Example 150, tert-butyl 6-[({4-[4-(2-aminopyrimidin-5-yl)phenyl]tetrahydro-2H-pyran-4-yl}carbonyl)amino]-3,4-dihydroisoquinolin-2(1H)-carboxylate] | 5.44 | 7.32 | 
26 | Nc1ncc(-c2ccc(C3(C(=O)Nc4ccccn4)CCOCC3)cc2)cn1 [Example 138, 4-[4-(2-aminopyrimidin-5-yl)phenyl]-N-(pyridin-2-yl)tetrahydro-2H-pyran-4-carboxamide] | 4.93 | 6.52 | 
27 | Nc1ncc(-c2ccc(C3(C(=O)Nc4ccc5ncsc5c4)CCC3)cn2)cn1 [Example 92, 1-[6-(2-aminopyrimidin-5-yl)pyridin-3-yl]-N-(1,3-benzothiazol-6-yl)cyclobutanecarboxamide] | 6.14 | 7.81 | 
28 | Cc1nc(-c2ccc(NC(=O)C3(c4ccc(-c5cnc(N)nc5)cc4)CCCCC3)nc2)cs1 [Example 123, 1-[4-(2-aminopyrimidin-5-yl)phenyl]-N-[5-(2-methyl-1,3-thiazol-4-yl)pyridin-2-yl]cyclohexanecarboxamide] | 6.04 | 8.40 | 
29 | Nc1ncc(-c2ccc(C3(C(=O)Nc4ccc(-c5ccccc5)cc4)CCOCC3)cc2)cn1 [Example 16, 4-[4-(2-aminopyrimidin-5-yl)phenyl]-N-(biphenyl-4-yl)tetrahydro-2H-pyran-4-carboxamide] | 6.20 | 7.97 | 
30 | Nc1ncc(-c2ccc(C3(C(=O)Nc4cccc(OCc5ccccc5)c4)CCOCC3)cc2)cn1 [Example 61, 4-[4-(2-aminopyrimidin-5-yl)phenyl]-N-[3-(benzyloxy)phenyl]tetrahydro-2H-pyran-4-carboxamide] | < 5.52 | 7.03 | 
